Literature values as cited in publication PMC3082041 (Cancer Chemotherapy and Pharmacology, 2010).

Test system: patients
Conditions: treated with Imatinib; cited from earlier work

Q: For `Cc1ccc(NC(=O)c2ccc(CN3CCN(C)CC3)cc2)cc1Nc1nccc(-c2cccnc2)n1` [Imatinib], which “patients with grade 3/4 edema” value is on record?
A: The value was 7%.
